Results on 28 molecules are retold here after ChEMBL document CHEMBL5532731, “Structural Modifications of Covalent Cathepsin S Inhibitors: Impact on Affinity, Selectivity, and Permeability” (ACS Med Chem Lett, 2024).

One series deals with Procathepsin L (Homo sapiens, UniProt P07711). The series is described as follows: Inhibition of human Cathepsin L using Z-Phe-Arg-AMC as substrate by fluorescence based assay.
A short description of series [1]: Selectivity index, ratio of Ki for human Cathepsin B using Z-Phe-Arg-AMC as substrate to Ki for recombinant Cathepsin S (unknown origin) expressed in Escherichia coli using Z-Val-Val-Arg-AMC as substrate.
The next series concerns the target Cathepsin B (Homo sapiens, UniProt P07858). The series is described as follows: Inhibition of human Cathepsin B using Z-Phe-Arg-AMC as substrate by fluorescence based assay.
Series [2] has as its target T1, Cathepsin S (Homo sapiens, UniProt P25774). The series is described as follows: Irreversible binding affinity to recombinant Cathepsin S (unknown origin) expressed in Escherichia coli incubated for 60 mins followed by substrate addition by fluorescence based dilution assay.
Target sequence in this assay (P25774 115-331 limits assumed): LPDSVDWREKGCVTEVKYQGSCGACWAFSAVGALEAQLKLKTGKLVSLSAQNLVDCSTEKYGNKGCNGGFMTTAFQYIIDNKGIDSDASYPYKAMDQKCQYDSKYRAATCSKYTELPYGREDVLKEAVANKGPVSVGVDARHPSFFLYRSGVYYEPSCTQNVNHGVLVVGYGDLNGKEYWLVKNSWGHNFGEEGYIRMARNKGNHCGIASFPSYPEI
In series [3] the target is T1, Cathepsin S. In words: Inhibition of recombinant Cathepsin S (unknown origin) expressed in Escherichia coli using Z-Val-Val-Arg-AMC as substrate by fluorescence based assay.
Target sequence in this assay (P25774 whole entry): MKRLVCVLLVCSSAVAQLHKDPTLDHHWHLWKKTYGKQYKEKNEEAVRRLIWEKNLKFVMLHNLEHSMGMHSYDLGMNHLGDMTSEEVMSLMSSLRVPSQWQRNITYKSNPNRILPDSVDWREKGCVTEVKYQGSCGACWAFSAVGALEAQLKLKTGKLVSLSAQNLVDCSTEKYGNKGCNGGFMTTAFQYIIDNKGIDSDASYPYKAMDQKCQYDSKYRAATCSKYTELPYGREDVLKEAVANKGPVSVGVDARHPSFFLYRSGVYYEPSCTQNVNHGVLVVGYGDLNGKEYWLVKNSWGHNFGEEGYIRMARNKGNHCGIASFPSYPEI
A short description of series [4]: Permeability of compound measured after 7 hrs by PAMPA. In kind it is ADME. The note with it: read-out: permeability. Background: The PAMPA barrier holds no transporters, so it reflects passive diffusion.
Series [5] in a line: Stability of compound at pH 4 assessed as compound remaining measured after 2 hrs. The note with it: buffer, pH 4, 2 h. In kind it is physicochemical.
Series [6] is described as follows: Stability of compound at pH 4 assessed as compound remaining measured after 24 hrs. In kind it is physicochemical. The note with it: buffer, pH 4, 24 h.
Series [7] in a line: Stability of compound at pH 7.4 assessed as compound remaining measured after 24 hrs. In kind it is physicochemical. The note with it: buffer, read-out: Stability.
The nature of series [8]: Selectivity index, ratio of Ki for human Cathepsin L using Z-Phe-Arg-AMC as substrate to Ki for recombinant Cathepsin S (unknown origin) expressed in Escherichia coli using Z-Val-Val-Arg-AMC as substrate.
Series [9] can be described thus: Oral bioavailability in rat. The note with it: in vivo. In kind it is ADME, organism-based.
Series [10] has as its target T1, Cathepsin S. In words: Binding affinity to recombinant Cathepsin S (unknown origin) expressed in Escherichia coli using Z-Val-Val-Arg-AMC as substrate assessed as inhibition constant for slowly reversible binding by fluorescence based assay.
Target sequence in this assay (P25774 whole entry): as above
Series [11] deals with T1, Cathepsin S. The series is described as follows: Binding affinity to recombinant Cathepsin S (unknown origin) expressed in Escherichia coli using Z-Val-Val-Arg-AMC as substrate assessed as Kinact for irreversible binding by fluorescence based assay.
Target sequence in this assay (P25774 115-331 limits assumed): as the sequence (P25774 115-331 limits assumed) above
Series [12] has as its target T1, Cathepsin S. In words: Binding affinity to recombinant Cathepsin S (unknown origin) expressed in Escherichia coli using Z-Val-Val-Arg-AMC as substrate assessed as second-order rate constant (K) for irreversible binding by fluorescence based assay.
Target sequence in this assay (P25774 115-331 limits assumed): as above
Series [13] deals with T1, Cathepsin S. The series is described as follows: Inhibition of Cathepsin S (unknown origin).
Target sequence in this assay (P25774 whole entry): as the sequence (P25774 whole entry) above

Each structure is given as a SMILES string. Active and inactive are the calls of the source. No cut-off for these calls is given here. Starred links: 1 amine or outer side, 2 acyl side, 3 side chain; linkers in the order of their positions; H or OH if unused. Non-standard residues stand in square brackets, D forms with d. Residues, ends and D or L forms follow the SMILES beside them. *: point of attachment. Cha = N[C@@H](CC1CCCCC1)C(=O)O; Morpholide = C1CN(*)CCO1; CO = O=C([*:1])[*:2]; Bn = c1ccc(C*)cc1; CH2Cl = ClC*

Procathepsin L, sequence (P07711 whole entry): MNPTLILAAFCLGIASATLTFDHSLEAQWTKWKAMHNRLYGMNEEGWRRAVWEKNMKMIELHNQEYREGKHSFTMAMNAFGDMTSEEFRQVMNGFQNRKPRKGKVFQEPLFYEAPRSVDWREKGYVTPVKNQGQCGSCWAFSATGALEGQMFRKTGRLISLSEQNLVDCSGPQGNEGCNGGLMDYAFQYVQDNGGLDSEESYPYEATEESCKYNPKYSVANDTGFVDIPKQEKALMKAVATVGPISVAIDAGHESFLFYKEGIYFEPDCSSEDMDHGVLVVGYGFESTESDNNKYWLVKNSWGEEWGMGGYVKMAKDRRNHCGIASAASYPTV

As a reminder, the Ki is the equilibrium dissociation constant of an inhibitor or competing ligand from its target. In the case of `CS(=O)(=O)C[C@H](N[C@@H](c1ccc(F)cc1)C(F)(F)F)C(=O)NC1(C#N)CC1`, the Ki was found to be 7110 nM at Procathepsin L, 1670 nM at Cathepsin B and 1 nM at Cathepsin S [3]. Further, the Ratio Ki in series [1] stood at 1670. Also, on Cathepsin S [2], the result was inactive.
With `N#C[C@H](CCc1ccccc1)NC(=O)[C@H](CC1CCCCC1)NC(=O)N1CCOCC1`, the Ki was found to be 2540 nM on Procathepsin L and 7850 nM at Cathepsin B. For the same molecule, the Papp at 7 h in series [4] was determined as 6 ×10⁻⁶ cm/s.
Turning to `O=C(N/N=C/[C@H](COCc1ccccc1)NC(=O)[C@H](CC1CCCCC1)NC(=O)N1CCOCC1)c1ccccc1`, the Ki at Procathepsin L worked out at 21 nM; on Cathepsin B, 142 nM; on Cathepsin S [3], 2.2 nM. Also, the figures for the Stability in series [5] and in series [6] were 50% and 80%, respectively. The remaining at 24 h in series [7] was 50%. Moreover, in [4], the Papp at 7 h was 0.1 ×10⁻⁶ cm/s.
For `N#C[C@H](COCc1ccccc1)NC(=O)[C@H](CC1CCCCC1)NC(=O)N1CCOCC1`, the Ki was determined as 543 nM on Procathepsin L and 1050 nM at Cathepsin B. In addition, the Papp at 7 h in [4] stood at 4.7 ×10⁻⁶ cm/s.
Take `N#C[C@H](CCc1ccccc1)NC(=O)[C@H](CC1CCCCC1)NC(=O)C1CCOCC1`: the Ki on Procathepsin L is 6340 nM; on Cathepsin B, more than 12000 nM; at Cathepsin S [3] it was 382 nM. Also, the Papp at 7 h in series [4] was 6.6 ×10⁻⁶ cm/s.
On to `CS(=O)(=O)C[C@H](N[C@@H](c1ccc([N+](=O)[O-])cc1)C(F)(F)F)C(=O)NC1(C#N)CC1`, for which the Ki on Procathepsin L was more than 10000 nM; on Cathepsin B it was more than 12000 nM; at Cathepsin S [3], 7.8 nM. Besides, the Ratio Ki in series [1] is more than 1500.
Regarding `N#CC1(NC(=O)[C@H](CC2CCCCC2)NC(=O)c2ccncc2)CC1`, the Ki was 716 nM at Procathepsin L, more than 12000 nM on Cathepsin B and 13 nM at Cathepsin S [3].
In the same order, the values of `CS(=O)(=O)C[C@H](N[C@@H](c1ccc(F)cc1)C(F)(F)F)C(=O)N[C@H](C#N)COCc1ccccc1` are 1950 nM, 157 nM and 2.4 nM.
Regarding `CS(=O)(=O)C[C@H](N[C@@H](c1ccc([N+](=O)[O-])cc1)C(F)(F)F)C(=O)N[C@H](C#N)CCc1ccccc1`, the Ki at Procathepsin L was more than 10000 nM; at Cathepsin B it was 36 nM; at Cathepsin S [3], 3.6 nM. Moreover, the Ratio Ki in series [8] was more than 2780.
As for `O=C(N/N=C(\CS(=O)(=O)c1ccccc1)[C@H](COCc1ccccc1)NC(=O)[C@H](CC1CCCCC1)NC(=O)N1CCOCC1)c1ccccc1`, the Ki was more than 2500 nM at Procathepsin L, more than 12 nM at Cathepsin B and 989 nM on Cathepsin S [3]. Further, the Stability in series [6] is recorded as 13%.
Consider `N#C[C@H](CCc1ccccc1)NC(=O)[C@H](CC1CCCCC1)NC(=O)c1ccncc1`, for which the Ki at Procathepsin L stood at 1460 nM; on Cathepsin B, 1670 nM; at Cathepsin S [3], 13 nM. The Papp at 7 h in series [4] was 2.5 ×10⁻⁶ cm/s.
Usually bioavailability stands for the share of a dose that reaches the circulation, judged against a reference dose that is usually intravenous. Turning to `CNC(=O)O[C@H]1COc2ccc(N3CCN(C4COC4)CC3)cc2[C@@H]1NC(=O)c1ccc(F)cc1`, the bioavailability in series [9] is 92%.
`N#C[C@H](CCc1ccccc1)NC(=O)[C@H](CC1CCCCC1)N[C@@H](c1ccc(F)cc1)C(F)(F)F`: the inhibition constant (Ki) is more than 10000 nM on Procathepsin L, more than 12000 nM on Cathepsin B and 146 nM at Cathepsin S [3].
`N#CC1(NC(=O)[C@H](CC2CCCCC2)N[C@@H](c2ccc(F)cc2)C(F)(F)F)CC1`: the Ki on Procathepsin L is 1500 nM; on Cathepsin B, more than 12000 nM; on Cathepsin S [3], 20 nM. In addition, the Papp at 7 h in series [4] is 4.9 ×10⁻⁶ cm/s.
For `O=C(OCC(=O)[C@H](COCc1ccccc1)NC(=O)[C@H](CC1CCCCC1)NC(=O)N1CCOCC1)c1ccccc1`, the Ki on Procathepsin L was more than 600 nM; at Cathepsin B, more than 2550 nM; at Cathepsin S [3], 25 nM. Also, the outcome on Cathepsin S [2] was Active.
For `O=C(CS(=O)(=O)c1ccccc1)[C@H](COCc1ccccc1)NC(=O)[C@H](CC1CCCCC1)NC(=O)N1CCOCC1`, the Ki was more than 600 nM at Procathepsin L, 43 nM on Cathepsin S [10], more than 510 nM on Cathepsin B and 331 nM on Cathepsin S [3]. Moreover, the result on Cathepsin S [2] was inactive. Moreover, in series [4], the Papp at 7 h came to 0.8 ×10⁻⁶ cm/s.
Turning to `C=CS(=O)(=O)C(=O)[C@H](COCc1ccccc1)NC(=O)[C@H](CC1CCCCC1)NC(=O)N1CCOCC1`, the Kinact at Cathepsin S [11] was determined as 0.02 s⁻¹. The result on Cathepsin S [2] was Active. The K at Cathepsin S [12] is 7.2 10^6/M/s. The Ki on Cathepsin S [3] turned out to be 3 nM.
With `N#CC1(NC(=O)[C@H](CC2CCCCC2)NC(=O)N2CCOCC2)CC1`, the Ki was 385 nM at Procathepsin L, more than 12000 nM on Cathepsin B and 1.5 nM at Cathepsin S [3].
Take `O=C[C@H](COCc1ccccc1)NC(=O)[C@H](CC1CCCCC1)NC(=O)N1CCOCC1` ({Morpholide-CO}-[Cha]-Ser(Bn)-aldehyde): the Ki was determined as 17 nM at Procathepsin L, 0.016 nM at Cathepsin S [10], 64 nM on Cathepsin B and 0.039 nM on Cathepsin S [3]. The Ratio Ki in [8] was more than 435; in [1], more than 1600. The Papp at 7 h in series [4] worked out at 4.5 ×10⁻⁶ cm/s.
Regarding `N#C[C@H](COCc1ccccc1)NC(=O)[C@H](CC1CCCCC1)N[C@@H](c1ccc(F)cc1)C(F)(F)F`, the Ki at Procathepsin L was more than 10000 nM; on Cathepsin B, more than 12000 nM; at Cathepsin S [3], 11 nM.
For the molecule `CS(=O)(=O)C[C@H](N[C@@H](c1ccc([N+](=O)[O-])cc1)C(F)(F)F)C(=O)N[C@H](C#N)COCc1ccccc1`, the Ki was more than 10000 nM at Procathepsin L, 82 nM at Cathepsin B and 13 nM at Cathepsin S [3]. Besides, the Papp at 7 h in series [4] came to 0.7 ×10⁻⁶ cm/s.
For `O=C(SCC(=O)[C@H](COCc1ccccc1)NC(=O)[C@H](CC1CCCCC1)NC(=O)N1CCOCC1)c1ccccc1`, the values for the inhibition constant Ki on Procathepsin L, at Cathepsin B and on Cathepsin S [3] were more than 3000 nM, more than 10 nM and 165 nM, respectively. Moreover, the result on Cathepsin S [2] was inactive.
On Cathepsin S [13], `CN1CCN(C(=O)N[C@@H](Cc2ccccc2)C(=O)N[C@H](/C=C/S(=O)(=O)c2ccccc2)CCc2ccccc2)CC1` [K-777] had a Ki of 13 nM.
`N#C[C@H](COCc1ccccc1)NC(=O)[C@H](CC1CCCCC1)NC(=O)c1ccncc1`: the Ki at Procathepsin L stood at 1020 nM; at Cathepsin B, 1910 nM. The Papp at 7 h in [4] came out at 2 ×10⁻⁶ cm/s.
For the molecule `N#CC1(NC(=O)[C@H](CC2CCCCC2)NC(=O)C2CCOCC2)CC1`, the Ki was 1670 nM at Procathepsin L, more than 12000 nM at Cathepsin B and 117 nM at Cathepsin S [3]. For the same molecule, the Papp at 7 h in series [4] was 0.1 ×10⁻⁶ cm/s.
`N#C[C@H](COCc1ccccc1)NC(=O)[C@H](CC1CCCCC1)NC(=O)C1CCOCC1`: the Ki at Procathepsin L is 5040 nM; at Cathepsin B it was more than 12000 nM; on Cathepsin S [3], 61 nM. Moreover, in series [4], the Papp at 7 h was found to be 4.1 ×10⁻⁶ cm/s.
Consider `O=C(CCl)[C@H](COCc1ccccc1)NC(=O)[C@H](CC1CCCCC1)NC(=O)N1CCOCC1` ({Morpholide-CO}-[Cha]-Ser(Bn)-CH2Cl), for which the Kinact on Cathepsin S [11] is 0.002 s⁻¹. Moreover, the K at Cathepsin S [12] is 4.3 10^6/M/s. For the same molecule, the Ki on Cathepsin S [3] came out at 0.5 nM.
As for `O=C(CO)[C@H](COCc1ccccc1)NC(=O)[C@H](CC1CCCCC1)NC(=O)N1CCOCC1`, the Ki on Procathepsin L was more than 600 nM; on Cathepsin B, more than 2550 nM; at Cathepsin S [3], 67 nM. Also, the result on Cathepsin S [2] was inactive.
